Assay results taken from patent US8975398B2, “NAMPT inhibitors” (AbbVie Inc., priority 2012, dated 2015).

Tests used:
[1] = target: NAMPT (human, recombinant, C-terminally His-tagged) (Homo sapiens, UniProt P43490); assay: Time-Resolved Fluorescence Resonance Energy Transfer (TR-FRET) Binding Assay of NAMPT; conditions: 6.8 nM NAMPT, 200 nM probe, equilibrated 3 hours, absence of substrates
Procedure: Determination of the utility of compounds having Formula (I) as binders to and inhibitors of NAMPT was performed using Time-Resolved Fluorescence Resonance Energy Transfer (TR-FRET) binding assays.
Time-Resolved Fluorescence Resonance Energy Transfer (TR-FRET) Binding Assay of NAMPT
Test compounds were serially diluted (typically 11 half log dilutions) in neat DMSO to 50× final concentrations prior to dilution with assay buffer (50 mM HEPES (NaOH), pH 7.5, 100 mM NaCl, 10 mM MgCl2, 1 mM DTT, 1% Glycerol) to 3× and 6% DMSO. Six μL were transferred to 384-well low-volume plates (Owens Corning #3673). To this, 12 μL of a 1.5× solution containing enzyme, probe and antibody were added. Final concentrations in the 18 μL, reactions were 1× assay buffer, 2% DMSO, 6.8 nM NAMPT (human, recombinant, C-terminally His-tagged), 200 nM probe (a potent nicotinamide-competitive inhibitor conjugated to Oregon Green 488) and 1 nM Tb-anti-His antibody (Invitrogen #PV5895). Reactions were equilibrated at room temperature for 3 hours prior to reading on an Envision multi-label plate reader (Perkin Elmer; Ex=337 nm, Em=520 and 495 nm). Time-resolved FRET ratios (Em520/Em495) were normalized to controls, plotted as a function of compound concentration and fit with the four-parameter logistic equation to determine IC50s.

NAMPT = NAMPT (Homo sapiens, UniProt P43490); assay: Time-Resolved Fluorescence Resonance Energy Transfer (TR-FRET) Binding Assay of NAMPT with PRPP; conditions: 2 nM NAMPT, 2 nM probe, 200 uM PRPP and 2.5 mM ATP, equilibrated 16 hours
Procedure: Time-Resolved Fluorescence Resonance Energy Transfer (TR-FRET) Binding Assay of NAMPT with PRPP
Compound handling and data processing were identical to the assay in the absence of substrates (above). Final concentrations were 1× assay buffer, 2% DMSO, 2 nM NAMPT, 2 nM probe, 1 nM Tb-anti-His antibody (Invitrogen #PV5895), 200 uM PRPP and 2.5 mM ATP. Reactions were equilibrated for 16 hours prior to measurement to allow for potential enzymatic modification of test compounds.

Chain of NAMPT (human, recombinant, C-terminally His-tagged) (P43490 whole entry): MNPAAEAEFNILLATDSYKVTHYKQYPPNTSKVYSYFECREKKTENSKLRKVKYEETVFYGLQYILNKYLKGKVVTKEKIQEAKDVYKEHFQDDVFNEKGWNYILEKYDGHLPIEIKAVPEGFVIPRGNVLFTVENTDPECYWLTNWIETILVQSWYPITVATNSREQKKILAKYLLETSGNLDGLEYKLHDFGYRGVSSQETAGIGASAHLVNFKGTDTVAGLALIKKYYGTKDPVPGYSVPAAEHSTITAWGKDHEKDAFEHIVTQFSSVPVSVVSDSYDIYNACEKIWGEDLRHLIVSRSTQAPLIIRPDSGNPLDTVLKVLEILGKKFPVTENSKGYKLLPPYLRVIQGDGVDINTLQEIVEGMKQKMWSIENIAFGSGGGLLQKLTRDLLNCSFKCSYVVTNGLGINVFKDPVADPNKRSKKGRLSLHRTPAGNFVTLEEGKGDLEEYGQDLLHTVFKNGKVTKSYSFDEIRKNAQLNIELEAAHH
Chain of NAMPT (P43490 whole entry): as above

| IC50 [1] | IC50 (NAMPT) | SMILES |
| --- | --- | --- |
| 7380 nM | 0.507 nM | O=C(NC1CN(c2cccnc2)C1)c1ccc(OC2CCN(C(=O)CC3CCOCC3)CC2)cc1 [Example 21, N-[1-(pyridin-3-yl)azetidin-3-yl]-4-{[1-(tetrahydro-2H-pyran-4-ylacetyl)piperidin-4-yl]oxy}benzamide] |
| 11.7 nM | 0.169 nM | CC[C@H](C)C(=O)N1CCC(c2ccc(NC(=O)C3CN(c4cccnc4)C3)cc2)CC1 [Example 22, N-(4-{1-[(2S)-2-methylbutanoyl]piperidin-4-yl}phenyl)-1-(pyridin-3-yl)azetidine-3-carboxamide] |
| 1950 nM | 0.61 nM | CC[C@H](C)C(=O)N1CCC(Oc2ccc(C(=O)NC3CN(c4cccnc4)C3)cc2)CC1 [Example 23, 4-({1-[(2S)-2-methylbutanoyl]piperidin-4-yl}oxy)-N-[1-(pyridin-3-yl)azetidin-3-yl]benzamide] |
| 5880 nM | 0.861 nM | CC(C)(O)C(=O)N1CCC(Oc2ccc(C(=O)NC3CN(c4cccnc4)C3)cc2)CC1 [Example 24, 4-{[1-(2-hydroxy-2-methylpropanoyl)piperidin-4-yl]oxy}-N-[1-(pyridin-3-yl)azetidin-3-yl]benzamide] |
| 28.1 nM | 0.598 nM | O=C(Nc1ccc(C2CCN(C(=O)CC3CCOCC3)CC2)cc1)C1CN(c2cccnc2)C1 [Example 25, 1-(pyridin-3-yl)-N-{4-[1-(tetrahydro-2H-pyran-4-ylacetyl)piperidin-4-yl]phenyl}azetidine-3-carboxamide] |
| 5.05 nM | 0.761 nM | O=C(Nc1ccc(C2CCN(C(=O)c3ccccc3)CC2)cc1)C1CN(c2cccnc2)C1 [Example 26, N-[4-(1-benzoylpiperidin-4-yl)phenyl]-1-(pyridin-3-yl)azetidine-3-carboxamide] |
| 79.8 nM | 16.7 nM | Cc1ncccc1N1CC(C(=O)Nc2ccc(C3CCN(C(=O)C(C)C)CC3)cc2)C1 [Example 29, N-{4-[1-(2-methylpropanoyl)piperidin-4-yl]phenyl}-1-(2-methylpyridin-3-yl)azetidine-3-carboxamide] |
| 15 nM | 0.267 nM | CC(C)C(=O)N1CCC(c2ccc(NC(=O)C3CN(c4cccnc4)C3)cc2)CC1 [Example 30, N-{4-[1-(2-methylpropanoyl)piperidin-4-yl]phenyl}-1-(pyridin-3-yl)azetidine-3-carboxamide] |
| 135 nM | 0.693 nM | CC(C)(O)C(=O)N1CCC(Oc2ccc(NC(=O)C3CN(c4cccnc4)C3)cc2)CC1 [Example 31, N-(4-{[1-(2-hydroxy-2-methylpropanoyl)piperidin-4-yl]oxy}phenyl)-1-(pyridin-3-yl)azetidine-3-carboxamide] |
| 10.2 nM | 0.284 nM | CC[C@H](C)C(=O)N1CCC(Oc2ccc(NC(=O)C3CN(c4cccnc4)C3)cc2)CC1 [Example 32, N-[4-({1-[(2S)-2-methylbutanoyl]piperidin-4-yl}oxy)phenyl]-1-(pyridin-3-yl)azetidine-3-carboxamide] |
| 109 nM | 0.342 nM | O=C(Nc1ccc(OC2CCN(C(=O)[C@@H]3CCCO3)CC2)cc1)C1CN(c2cccnc2)C1 [Example 33, 1-(pyridin-3-yl)-N-[4-({1-[(2S)-tetrahydrofuran-2-ylcarbonyl]piperidin-4-yl}oxy)phenyl]azetidine-3-carboxamide] |
| 71.4 nM | 0.886 nM | CCCCC(=O)N1CCC(Oc2ccc(NC(=O)C3CN(c4cccnc4)C3)cc2)CC1 [Example 34, N-{4-[(1-pentanoylpiperidin-4-yl)oxy]phenyl}-1-(pyridin-3-yl)azetidine-3-carboxamide] |
| 91.6 nM | 0.866 nM | CC1CC1C(=O)N1CCC(Oc2ccc(NC(=O)C3CN(c4cccnc4)C3)cc2)CC1 (stereo not shown) [Example 35, N-[4-({1-[(2-methylcyclopropyl)carbonyl]piperidin-4-yl}oxy)phenyl]-1-(pyridin-3-yl)azetidine-3-carboxamide] |
| 40.1 nM | 0.882 nM | O=C(Nc1ccc(OC2CCN(C(=O)CC3C[C@@H]4CC[C@H]3C4)CC2)cc1)C1CN(c2cccnc2)C1 (stereo partly drawn) [Example 36, N-[4-({1-[(1S,4R)-bicyclo[2.2.1]hept-2-ylacetyl]piperidin-4-yl}oxy)phenyl]-1-(pyridin-3-yl)azetidine-3-carboxamide] |
| 68.9 nM | 0.983 nM | CC(C)CCC(=O)N1CCC(Oc2ccc(NC(=O)C3CN(c4cccnc4)C3)cc2)CC1 [Example 37, N-(4-{[1-(4-methylpentanoyl)piperidin-4-yl]oxy}phenyl)-1-(pyridin-3-yl)azetidine-3-carboxamide] |
| 46.5 nM | 0.9 nM | CCC(C)CC(=O)N1CCC(Oc2ccc(NC(=O)C3CN(c4cccnc4)C3)cc2)CC1 (stereo not shown) [Example 38, N-(4-{[1-(3-methylpentanoyl)piperidin-4-yl]oxy}phenyl)-1-(pyridin-3-yl)azetidine-3-carboxamide] |
| 104 nM | 1.05 nM | CCOCCC(=O)N1CCC(Oc2ccc(NC(=O)C3CN(c4cccnc4)C3)cc2)CC1 [Example 39, N-(4-{[1-(3-ethoxypropanoyl)piperidin-4-yl]oxy}phenyl)-1-(pyridin-3-yl)azetidine-3-carboxamide] |
| 42.8 nM | 0.49 nM | CCC(C)(C)C(=O)N1CCC(Oc2ccc(NC(=O)C3CN(c4cccnc4)C3)cc2)CC1 [Example 40, N-(4-{[1-(2,2-dimethylbutanoyl)piperidin-4-yl]oxy}phenyl)-1-(pyridin-3-yl)azetidine-3-carboxamide] |
| 69.2 nM | 0.78 nM | CC(C)(C)CC(=O)N1CCC(Oc2ccc(NC(=O)C3CN(c4cccnc4)C3)cc2)CC1 [Example 41, N-(4-{[1-(3,3-dimethylbutanoyl)piperidin-4-yl]oxy}phenyl)-1-(pyridin-3-yl)azetidine-3-carboxamide] |
| 226 nM | 2.39 nM | CC(C)(C)C(=O)N1CCC(Oc2ccc(NC(=O)C3CN(c4cccnc4)C3)cc2)CC1 [Example 42, N-(4-{[1-(2,2-dimethylpropanoyl)piperidin-4-yl]oxy}phenyl)-1-(pyridin-3-yl)azetidine-3-carboxamide] |
| 86.5 nM | 0.803 nM | CCCC(=O)N1CCC(Oc2ccc(NC(=O)C3CN(c4cccnc4)C3)cc2)CC1 [Example 43, N-{4-[(1-butanoylpiperidin-4-yl)oxy]phenyl}-1-(pyridin-3-yl)azetidine-3-carboxamide] |
| 138 nM | 1.01 nM | CCOCC(=O)N1CCC(Oc2ccc(NC(=O)C3CN(c4cccnc4)C3)cc2)CC1 [Example 44, N-(4-{[1-(ethoxyacetyl)piperidin-4-yl]oxy}phenyl)-1-(pyridin-3-yl)azetidine-3-carboxamide] |
| 87.3 nM | 1.08 nM | CC(C)CC(=O)N1CCC(Oc2ccc(NC(=O)C3CN(c4cccnc4)C3)cc2)CC1 [Example 45, N-(4-{[1-(3-methylbutanoyl)piperidin-4-yl]oxy}phenyl)-1-(pyridin-3-yl)azetidine-3-carboxamide] |
| 93.4 nM | 1.02 nM | CC(C)C(=O)N1CCC(Oc2ccc(NC(=O)C3CN(c4cccnc4)C3)cc2)CC1 [Example 46, N-(4-{[1-(2-methylpropanoyl)piperidin-4-yl]oxy}phenyl)-1-(pyridin-3-yl)azetidine-3-carboxamide] |
| 80.5 nM | 1.78 nM | CC(=O)N[C@@H](CC(C)C)C(=O)N1CCC(Oc2ccc(NC(=O)C3CN(c4cccnc4)C3)cc2)CC1 [Example 47, N-(4-{[1-(N-acetyl-L-leucyl)piperidin-4-yl]oxy}phenyl)-1-(pyridin-3-yl)azetidine-3-carboxamide] |
| 112 nM | 0.861 nM | COCCOCC(=O)N1CCC(Oc2ccc(NC(=O)C3CN(c4cccnc4)C3)cc2)CC1 [Example 48, N-[4-({1-[(2-methoxyethoxy)acetyl]piperidin-4-yl}oxy)phenyl]-1-(pyridin-3-yl)azetidine-3-carboxamide] |
| 66.1 nM | 1.02 nM | O=C(Nc1ccc(OC2CCN(C(=O)C3CCCCC3)CC2)cc1)C1CN(c2cccnc2)C1 [Example 49, N-(4-{[1-(cyclohexylcarbonyl)piperidin-4-yl]oxy}phenyl)-1-(pyridin-3-yl)azetidine-3-carboxamide] |
| 63.5 nM | 1.1 nM | O=C(Nc1ccc(OC2CCN(C(=O)CC3CCCCC3)CC2)cc1)C1CN(c2cccnc2)C1 [Example 50, N-(4-{[1-(cyclohexylacetyl)piperidin-4-yl]oxy}phenyl)-1-(pyridin-3-yl)azetidine-3-carboxamide] |
| 109 nM | 1.17 nM | O=C(Nc1ccc(OC2CCN(C(=O)CCC(F)(F)F)CC2)cc1)C1CN(c2cccnc2)C1 [Example 51, 1-(pyridin-3-yl)-N-(4-{[1-(4,4,4-trifluorobutanoyl)piperidin-4-yl]oxy}phenyl)azetidine-3-carboxamide] |
